From patent publication US20250144069A1, “BILOBALIDE DERIVATIVE COMPOUNDS FOR TREATING NEUROLOGICAL DISEASES AND CANCERS” (The Chinese University of Hong Kong, priority 2023, published 2025)

Legend:
[1] = Single-dose CCK-8 cell viability screening (adherent cells); assay type: cell-based, human; details: Homo sapiens, A549, 48 h, average of A549 and Jurkat % viability, 50 uM, 48 h
A549 cells = experiment: as above; assay type: cell-based, human; details: Homo sapiens, A549, 48 h, A549 cells, 50 uM, 48 h, CCK-8; read-out: % Viability (50 uM, 48 h) A549
HMC3 cells [2] = experiment: Intracellular ROS level by CellROX (fluorescent imaging and flow cytometry); assay type: cell-based; details: HMC3, 50 nM RSL3 2 h, then 50 μM compound 3 h
Method: (§1) For flow cytometry, HMC3 cells (seeded 50,000 cells per well on 24-well plate one day prior to the experiment) were pretreated with 50 nM RSL3 for 2 h. […] After which medium was replaced with BODIPY™ 581/591C11 (10 μM, Invitrogen) or CellROX™ Green (5 μM, Invitrogen) for 30 min staining. Cells were then washed 3 times with PBS and collected. Fluorescence was measured by BD FACSympgony A5.2 SORP Flow Cell Analyzer (BD Biosciences).
For fluorescent imaging, 10,000 cells per well of HMC3 were laid on cover slip and incubated overnight. After the same compound treatment as described above in this section, cells were subsequently incubated with CellROX™ Green and Hoechst 34580 (MCE) for 30 min. After incubation, cells were washed 3 times gently with PBS. Cover slips were then attached to glass slides by Anti-Fade Fluorescence Mounting Medium (Abcam) and imaged via ECLIPSE Ti fluorescence microscope (Nikon). Fluorescent intensity was quantified using imageJ software.
To further evaluate the anti-ferroptotic properties of bilobalide analogues, we tested its effect on the total level of intracellular reactive oxygen species (ROS), we performed fluorescent staining on the HMC3 cell line using CellROX, which is a probe which can emit green fluorescence after reacting with ROS. […]

HMC3 cells [3] = experiment: Lipid peroxidation level by flow cytometry using C11-BODIPY; assay type: cell-based; details: HMC3, 50 nM RSL3 2 h, then 50, 25 and 12.5 μM compound 3 h
Method: as §1
Disequilibrium ROS level acts as a direct initiator of lipid peroxidation, which is one of the major hallmarks of ferroptosis. In this example, HMC3 cells according to the conditions in Table 4 were subjected to measurement of lipid peroxidation level using flow cytometry and the lipid peroxidation sensor C11-BODIPY.
For flow cytometry, HMC3 cells (seeded 50,000 cells per well on 24-well plate one day prior to the experiment) were pretreated with 50 nM RSL3 for 2 h. After RSL3 treatment, medium was replaced by DMSO (0.1%) only, SXQ087-1 (10, 5 and 2.5 μM), following by 3 h treatment. After which medium was replaced with BODIPY™ 581/591C11 (10 μM, Invitrogen) for 30 min staining. Cells were then washed 3 times with PBS and collected. Fluorescence was measured by BD FACSympgony A5.2 SORP Flow Cell Analyzer (BD Biosciences).
Lipid peroxidation is one of the major hallmarks of ferroptosis. In this example, HMC3 cells according to the conditions in Table 5 were subjected to measurement of lipid peroxidation level using flow cytometry and the lipid peroxidation sensor C11-BODIPY.

HMC3 cells [4] = assay type: cell-based; details: then 50 μM compound 22 h
GAPDH = GAPDH protein level by Western-blot after RSL3; assay type: cell-based; details: HMC3, 500 nM RSL3 2 h, then various concentrations of compound 8 h
Method: In FIN56 assay, HMC3 (300,000 cells per well on 6-well plate) was pre-treated with FIN56 (2.5, 1.25, 0.625 μM) for 2 h, followed by 8 h treatment of DMSO only (0.1%) or XBB-037 (50 μM). In RSL3 assay, HMC3 (300,000 cells per well on 6-well plate) was pre-treated with RSL3 (750, 500, 250 nM) for 2 h, followed by 4 h or 8 h treatment of DMSO only (0.1%) or XBB-037 (50 μM). […] Antibodies for GPX4 (52455, CST) was used at 1:500 dilution, β-Actin (AC026, ABclonal) was used at 1:400,000 dilution, GAPDH (AC035, ABclonal) was used at 1:3000 dilution. […] Band intensity was normalized by image lab software.
This observation reflected the governing of GPX4 by bilobalide analogue XBB-037, which played an important role in the mechanism against RSL3-induced ferroptosis.

HMC3 cells [5] = experiment: Cytotoxicity, cell viability of HMC3 cells; assay type: cell-based; details: 24 h treatment
Excerpt: Now referring to FIG. 11A, a chart showing the cell viability (%) of HMC3 cells treated with SXQ087-1, XBB-037 or bilobalide.

[6] = test system: HT22 mouse hippocampal cell line; experiment: RSL3-induced ferroptosis model, cell viability (CCK-8)
Method: In this example, the anti-ferroptotic properties of the BB analogues described in preceding examples were evaluated by a RSL3-induced ferroptosis model. […] To evaluate the anti-ferroptosis activity of BB analogues, we developed a phenotypic screening based on RSL3-induced ferroptosis model on HT22 mouse hippocampal cell line, HMC3 microglial cell line and BV-2 murine microglial cell line which were co-treated or pre-treated with RSL3 and BB analogues for 2-24 h, and the cell viability was subsequently measured.
HMC3 cell line was maintained in Minimum Essential Medium (MEM, Gibco) supplemented with 1× non-essential amino acid (Gibco), 1 mM sodium pyruvate (Gibco), 10% fetal bovine serum (FBS) (Gibco) and 1% penicillin/streptomycin (Gibco). BV-2 cell line was maintained in Roswell Park Memorial Institute (RPMI) 1640 medium (Gibco) supplemented with 10% FBS and 1% penicillin/streptomycin, and HT22 cell line was maintained in Dulbecco's Modified Eagle's Medium (DMEM) (Gibco) supplemented with 10% FBS and 1% penicillin/streptomycin. All cells were incubated at 37° C. in a humidified atmosphere under 5% CO2.
For phenotypic screening of bilobalide (BB) analogues, 5,000 cells per well (100 uL volume) of HT22, HMC3 or BV-2 cells were placed in 96-well plate and allowed to adhere for 22 h. After which, cells were pre-treated with 200 nM (on HT22, HMC3) or 500 nM (on BV-2) of RSL3 (Bidepharm) for 2 h respectively. Medium was then replaced by 50 μM BB analogues and followed by 22 h incubation subsequently. Cell viability was measured using cell counting kit-8 (CCK-8) (MCE). For dose-response of BB analogues, RSL3, HT22 and HMC3 cells (seeded on 96-well plates at 5,000 cells per well) were treated with multiple doses of RSL3 for 2 h. […] Cell viability was measured after 22 h treatment by CCK-8. […] Cell viability was measured by CCK-8 using CLARIOstar monochromator multimode plate reader under 450 nm wavelength.
In this example, the cells were pre-treated with RSL3 (200 nM for HT22 and HMC3, 500 nM for BV-2) for two hours, followed by bilobalide analogues treatment (50 PM) for 22 hours. Cell viability was measured using cell counting kit-8 (CCK-8); n=5 technical replicates. […] Such effect was further investigated by treating the cell lines with various doses of RSL3.

CC(C)(C)[C@]1(O)C[C@@H]2OC(=O)C[C@@]23C(=O)O[C@@H]2N(c4ccc(N)cc4)C(=O)[C@H](OC(=O)c4ccccc4)[C@]213 [XBB-037, 4-(3aS,5aS,8R,9R,10aS)-8-(benzoyloxy)-9-(tert-butyl)-9-hydroxy-2,4,7-trioxohexahydro-4H,9H-furo[3″,2″:2′,3′]cyclopenta[1′,2′:3,4]furo[2,3-b]pyrrol-6(5aH)-yl)benzenaminium chloride]
viability at 50 µM [1]: 90.5% | viability at 50 µM (A549 cells): 95% | intracellular ROS level (CellROX fluorescent staining) (HMC3 cells [2]): significantly reduced intracellular ROS level | lipid peroxidation level (C11-BODIPY) (HMC3 cells [3]): significant down-regulation of RSL3-induced lipid peroxidation accumulation in a dose-dependent manner | protection against FIN56-induced cell death (cell viability) (HMC3 cells [4]; HMC3, FIN56 2 h): effectively suppressed FIN56-induced cell death | protection against ML162 lethality (cell viability) (HMC3 cells [4]; HMC3, ML162 2 h): alleviated the lethality of ML162 | protection against ML210 lethality (cell viability) (HMC3 cells [4]; HMC3, ML210 2 h): alleviated the lethality of ML210 | protection against erastin-induced lethality (cell viability) (HMC3 cells [4]; HMC3, erastin 2 h): suppressed erastin-induced lethality | GAPDH level after RSL3 (GAPDH): restored the level of GAPDH | cytotoxicity (cell viability) (HMC3 cells [5]): no significant cytotoxicity | inhibition of RSL3-induced ferroptosis (phenotypic screening, cell viability) ([6]; HT22, RSL3 200 nM 2 h, then 50 μM compound 22 h): effectively inhibit ferroptosis | shift of RSL3 dose-dependent viability curve ([6]; HT22, multiple doses of RSL3, 50 μM compound): diminished RSL3 lethality
